Source: patent US9464056B2, “Fungicidal 4-methylanilino pyrazoles” (E. I. DU PONT DE NEMOURS AND COMPANY, priority 2012, dated 2016)

Experiments:
[1] = test system: Blumeria graminis f. sp. tritici; experiment: Test F: preventive spray on wheat seedlings, Blumeria graminis f. sp. tritici (wheat powdery mildew), visual disease rating; type: in vivo; conditions: topical, 192 h, 100 = 100% disease control, 0 = no disease control relative to controls
Source text: General protocol for preparing test suspensions for Tests A-H: the test compounds were first dissolved in acetone in an amount equal to 3% of the final volume and then suspended at the desired concentration (in ppm) in acetone and purified water (50/50 mix by volume) containing 250 ppm of the surfactant Trem® 014 (polyhydric alcohol esters). The resulting test suspensions were then used in Tests A-F. Spraying a 40 ppm test suspension to the point of run-off on the test plants was the equivalent of a rate of 160 g/ha. Unless otherwise indicated, the rating values indicate a 40 ppm test suspension was used. The test suspension was sprayed to the point of run-off on wheat seedlings. The following day the seedlings were inoculated with a spore dust of Blumeria graminis f. sp. tritici (also known as Erysiphe graminis f. sp. tritici, the causal agent of wheat powdery mildew) and incubated in a growth chamber at 20° C. for 8 days, after which time visual disease ratings were made. Results for Tests A-F are given in Table A. In the Table, a rating of 100 indicates 100% disease control and a rating of 0 indicates no disease control (relative to the controls). A dash (-) indicates no test results.

[2] = test system: Puccinia recondita f. sp. tritici; experiment: Test E2: preventive spray on wheat seedlings, Puccinia recondita f. sp. tritici (wheat leaf rust), visual disease rating; type: in vivo; conditions: topical, 192 h, 100 = 100% disease control, 0 = no disease control relative to controls
Source text: (§1) General protocol for preparing test suspensions for Tests A-H: the test compounds were first dissolved in acetone in an amount equal to 3% of the final volume and then suspended at the desired concentration (in ppm) in acetone and purified water (50/50 mix by volume) containing 250 ppm of the surfactant Trem® 014 (polyhydric alcohol esters). The resulting test suspensions were then used in Tests A-F. Spraying a 40 ppm test suspension to the point of run-off on the test plants was the equivalent of a rate of 160 g/ha. Unless otherwise indicated, the rating values indicate a 40 ppm test suspension was used. The test suspension was sprayed to the point of run-off on wheat seedlings. The following day the seedlings were inoculated with a spore suspension of Puccinia recondita f. sp. tritici (the causal agent of wheat leaf rust) and incubated in a saturated atmosphere at 20° C. for 24 h, and then moved to a growth chamber at 20° C. for 7 days, after which time visual disease ratings were made. Results for Tests A-F are given in Table A. In the Table, a rating of 100 indicates 100% disease control and a rating of 0 indicates no disease control (relative to the controls). A dash (-) indicates no test results.

Septoria nodorum = experiment: Test C: preventive spray on wheat seedlings, Septoria nodorum (Septoria glume blotch), visual disease rating; type: in vivo; conditions: Parastagonospora nodorum, topical, 264 h, 100 = 100% disease control, 0 = no disease control relative to controls
Source text: as §1, with “Septoria nodorum” for “Puccinia recondita f. sp. tritici”, “Septoria glume blotch)” for “wheat leaf rust)”, “48” for “24”, “9” for “7”

Botrytis cinerea = experiment: Test A: preventive spray on tomato seedlings, Botrytis cinerea (tomato Botrytis), visual disease rating; type: in vivo; conditions: 100 = 100% disease control, 0 = no disease control relative to controls
Source text: General protocol for preparing test suspensions for Tests A-H: the test compounds were first dissolved in acetone in an amount equal to 3% of the final volume and then suspended at the desired concentration (in ppm) in acetone and purified water (50/50 mix by volume) containing 250 ppm of the surfactant Trem® 014 (polyhydric alcohol esters). The resulting test suspensions were then used in Tests A-F. Spraying a 40 ppm test suspension to the point of run-off on the test plants was the equivalent of a rate of 160 g/ha. Unless otherwise indicated, the rating values indicate a 40 ppm test suspension was used. The test suspension was sprayed to the point of run-off on tomato seedlings. The following day the seedlings were inoculated with a spore suspension of Botrytis cinerea (the causal agent of tomato Botrytis) and incubated in saturated atmosphere at 20° C. for 48 h, and then moved to a growth chamber at 27° C. for 3 days, after which time visual disease ratings were made. Results for Tests A-F are given in Table A. In the Table, a rating of 100 indicates 100% disease control and a rating of 0 indicates no disease control (relative to the controls). A dash (-) indicates no test results.

Septoria tritici = experiment: Test D: preventive spray on wheat seedlings, Septoria tritici (wheat leaf blotch), visual disease rating; type: in vivo; conditions: Zymoseptoria tritici, topical, 504 h, 100 = 100% disease control, 0 = no disease control relative to controls
Source text: General protocol for preparing test suspensions for Tests A-H: the test compounds were first dissolved in acetone in an amount equal to 3% of the final volume and then suspended at the desired concentration (in ppm) in acetone and purified water (50/50 mix by volume) containing 250 ppm of the surfactant Trem® 014 (polyhydric alcohol esters). The resulting test suspensions were then used in Tests A-F. Spraying a 40 ppm test suspension to the point of run-off on the test plants was the equivalent of a rate of 160 g/ha. Unless otherwise indicated, the rating values indicate a 40 ppm test suspension was used. The test suspension was sprayed to the point of run-off on wheat seedlings. The following day the seedlings were inoculated with a spore suspension of Septoria tritici (the causal agent of wheat leaf blotch) and incubated in saturated atmosphere at 24° C. for 48 h, and then moved to a growth chamber at 20° C. for 19 days, after which time visual disease ratings were made. Results for Tests A-F are given in Table A. In the Table, a rating of 100 indicates 100% disease control and a rating of 0 indicates no disease control (relative to the controls). A dash (-) indicates no test results.

`Cc1cc(Cl)c(Nc2c(-c3ccc(F)cc3F)c(C)nn2C)c(Cl)c1` [Compound 16, N-(2,6-dichloro-4-methylphenyl)-4-(2,4-difluorophenyl)-1,3-dimethyl-1H-pyrazol-5-amine] showed a pest or weed control at 40 µg/mL [1] of 99%, a pest or weed control at 40 µg/mL [2] of 100% and a pest or weed control at 40 µg/mL (Septoria nodorum) of 97%. The pest or weed control at 40 µg/mL (Botrytis cinerea) was 100%, the melting point was 147 to 149 °C and the pest or weed control at 40 µg/mL (Septoria tritici) was 73%.
